This passage reports GI50 and TGI results from PubChem BioAssay (NCI).

Among the test systems are SNB-19 CNS; EKVX NSCLC; LOX IMVI melanoma; CAKI-1 renal; SK-MEL-28 melanoma; DU-145 prostate; HOP-92 NSCLC; MCF7 breast; T-47D breast; M14 melanoma.
Holding throughout (experiment): NCI anticancer screen, dose series, 48 h

“And” between values parts separate entries of the source, which are not always exact repeats. Identical values can stand only once.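 Results reflect a 48-hour exposure of cells in 96-well plates to compound at five concentrations. GI50 = concentration required for 50% inhibition of growth. TGI: total growth inhibition.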

With `Cc1ccc(CNc2ccc(Cl)cc2NCc2ccc(C)c(O)c2)cc1O`, the GI50 is 7.69 µM in the experiment on SNB-19 CNS; 8.14 µM in the experiment with EKVX NSCLC; 6.93 µM in the experiment on LOX IMVI melanoma; 7.39 µM in the experiment with CAKI-1 renal; 7.21 µM in the experiment with SK-MEL-28 melanoma; 7.71 µM in the experiment on DU-145 prostate. Besides, the GI50 was 6.91 µM in the experiment with HOP-92 NSCLC, 6.18 µM with MCF7 breast, 7.4 µM with T-47D breast and 5.78 µM in the experiment on M14 melanoma. Further, the TGI with SNB-19 CNS was determined as 15.3 µM; in the experiment with EKVX NSCLC, 15.4 µM; with LOX IMVI melanoma, 13.5 µM; in the experiment with CAKI-1 renal, 14 µM; in the experiment on SK-MEL-28 melanoma it was 14.2 µM; in the experiment on DU-145 prostate it was 14.4 µM. Besides, the TGI with HOP-92 NSCLC was 14.2 µM; with MCF7 breast it was 14.3 µM; in the experiment with T-47D breast it was 20.1 µM; with M14 melanoma, 12.6 µM.

With `CC[C@@]12CC(C(=O)OC)=C3Nc4ccccc4[C@@]34CCN(C[C@H]3O[C@H]31)[C@@H]24`, the GI50 is 16.1 µM with SNB-19 CNS; 40.2 µM with EKVX NSCLC; 34.8 µM with LOX IMVI melanoma; 36.9 µM in the experiment with CAKI-1 renal; 86.2 µM with SK-MEL-28 melanoma; above 100 µM in the experiment with DU-145 prostate. Further, the GI50 in the experiment on HOP-92 NSCLC was 17.7 µM; in the experiment with MCF7 breast, 46 µM; in the experiment with T-47D breast, 27.5 µM; in the experiment on M14 melanoma it was 31.7 µM. Also, the TGI in the experiment with SNB-19 CNS is 30.7 µM; in the experiment with EKVX NSCLC, above 100 µM; in the experiment with LOX IMVI melanoma, above 100 µM; with CAKI-1 renal it was above 100 µM; in the experiment with SK-MEL-28 melanoma it was above 100 µM; with DU-145 prostate it was above 100 µM. Moreover, the TGI in the experiment with HOP-92 NSCLC, with MCF7 breast, with T-47D breast and with M14 melanoma was above 100 µM throughout.

For the compound `O=C1Nc2ccc(I)cc2/C1=C/c1cc(Br)c(O)c(Br)c1`, the GI50 with SNB-19 CNS is > 21.6 µM and 31.1 µM; in the experiment with EKVX NSCLC, > 17.5 µM and 13.8 µM; in the experiment with LOX IMVI melanoma, > 17.5 µM and 16.2 µM; in the experiment on CAKI-1 renal, > 15.9 µM and 14.9 µM; in the experiment on SK-MEL-28 melanoma, 14.4 µM and 9.72 µM; in the experiment with DU-145 prostate, > 23.8 µM and 25 µM. Also, the GI50 in the experiment with HOP-92 NSCLC was 15.6 µM; in the experiment on MCF7 breast, > 20.1 µM and 15.4 µM; in the experiment on T-47D breast, > 18.5 µM and 15.4 µM; in the experiment on M14 melanoma it was 10.8 µM and 5.03 µM. Moreover, the TGI was above 94.3 µM with SNB-19 CNS; above 84.1 µM in the experiment with EKVX NSCLC; above 79 µM in the experiment on LOX IMVI melanoma; > 25 µM and 72 µM with CAKI-1 renal; above 72.2 µM in the experiment with SK-MEL-28 melanoma; above 100 µM in the experiment on DU-145 prostate. Moreover, the TGI in the experiment with HOP-92 NSCLC is 54.7 µM; in the experiment on MCF7 breast it was above 82.2 µM; in the experiment with T-47D breast it was above 82.8 µM; with M14 melanoma it was > 25 µM and 72.1 µM.

As for `CCCN1CCCC(c2ccc(Nc3nc(Nc4cc(F)ccc4C(N)=O)c4cc[nH]c4n3)c(OC)c2)C1` (configuration not stated), the GI50 with SNB-19 CNS was 3.19 µM; in the experiment with EKVX NSCLC, 0.862 µM; in the experiment on LOX IMVI melanoma it was 0.588 µM; in the experiment on CAKI-1 renal, 3.17 µM; with SK-MEL-28 melanoma, 3.49 µM; with DU-145 prostate, 0.802 µM. For the same compound, the GI50 in the experiment with HOP-92 NSCLC is 0.013 µM; in the experiment with MCF7 breast, 0.0137 µM; in the experiment with T-47D breast it was 3.55 µM; in the experiment on M14 melanoma it was 1.02 µM. Moreover, the TGI came to 6.45 µM with SNB-19 CNS; 5.19 µM in the experiment on EKVX NSCLC; 5.49 µM in the experiment with LOX IMVI melanoma; 8.63 µM in the experiment on CAKI-1 renal; 6.93 µM in the experiment with SK-MEL-28 melanoma; 4.74 µM with DU-145 prostate. Further, the TGI is 1.39 µM in the experiment on HOP-92 NSCLC, 3.58 µM in the experiment on MCF7 breast, 7.62 µM with T-47D breast and 4.8 µM in the experiment with M14 melanoma.

Consider `CN1CC[C@H](N(C)C(=O)N2CC(c3cc(F)ccc3F)=C[C@@]2(CO)c2ccccc2)[C@H](F)C1`, for which the GI50 is 0.0259 µM in the experiment on SNB-19 CNS; 0.0415 µM in the experiment on LOX IMVI melanoma; 0.0459 µM with CAKI-1 renal; 0.033 µM with DU-145 prostate; 0.143 µM in the experiment on HOP-92 NSCLC; 0.00333 µM in the experiment on MCF7 breast. In addition, the GI50 with T-47D breast is 0.0635 µM; in the experiment with M14 melanoma it was 0.00202 µM. For the same compound, the TGI with SNB-19 CNS was above 100 µM; in the experiment with EKVX NSCLC, above 100 µM; in the experiment on LOX IMVI melanoma, above 100 µM; in the experiment on CAKI-1 renal, above 100 µM; in the experiment on SK-MEL-28 melanoma it was 28.3 µM; in the experiment on DU-145 prostate it was 35.4 µM. Besides, the TGI in the experiment on HOP-92 NSCLC was 79.7 µM; with MCF7 breast, 77.6 µM; in the experiment with T-47D breast, above 100 µM; with M14 melanoma it was 0.00507 µM.

Take `Nc1c2ccccc2nc2ccccc12`: the GI50 in the experiment with SNB-19 CNS was 1.82 µM and 3.61 µM; in the experiment with EKVX NSCLC it was 1.78 µM and 3.46 µM; with LOX IMVI melanoma, 1.77 µM and 1.69 µM; in the experiment on CAKI-1 renal it was 1.96 µM and 2.11 µM; in the experiment on SK-MEL-28 melanoma, 1.89 µM and 3.69 µM; in the experiment with DU-145 prostate, 2.02 µM and 2.57 µM. Also, the GI50 with HOP-92 NSCLC was 1.63 µM and 3.71 µM; in the experiment with MCF7 breast it was 1.62 µM and 3.02 µM; with T-47D breast it was 1.62 µM and 2.99 µM; in the experiment with M14 melanoma, 1.7 µM and 3.21 µM. The TGI was 12.9 µM and 20.7 µM in the experiment with SNB-19 CNS; 5.12 µM and 3.5 µM in the experiment on LOX IMVI melanoma; 5.96 µM with CAKI-1 renal; 3.92 µM and 13.7 µM in the experiment with SK-MEL-28 melanoma; 5.51 µM and 6.86 µM in the experiment with DU-145 prostate; 4.82 µM and 23.2 µM in the experiment on HOP-92 NSCLC. Besides, the TGI is 9.14 µM and 10.8 µM with MCF7 breast; 6.38 µM and 7.61 µM with T-47D breast; 3.48 µM and 10 µM with M14 melanoma.

As for `O=C(c1ccco1)c1c(C(F)(F)F)n([O-])c2cc(Cl)c(Cl)cc2[n+]1=O`, the GI50 with SNB-19 CNS is 6.41 µM; with EKVX NSCLC, 0.887 µM; with LOX IMVI melanoma it was 0.169 µM; in the experiment on CAKI-1 renal, 0.434 µM; in the experiment on SK-MEL-28 melanoma it was 2.97 µM; with DU-145 prostate it was 0.787 µM. For the same compound, the GI50 in the experiment with HOP-92 NSCLC was 0.851 µM; in the experiment with MCF7 breast it was 0.123 µM; in the experiment with T-47D breast, 7.03 µM; in the experiment on M14 melanoma, 0.715 µM. In addition, the TGI in the experiment on SNB-19 CNS was 14.8 µM; with EKVX NSCLC, 1.86 µM; with LOX IMVI melanoma, 0.52 µM; in the experiment on CAKI-1 renal, 1.24 µM; in the experiment with SK-MEL-28 melanoma it was 6.45 µM; with DU-145 prostate, 2.03 µM. The TGI in the experiment on HOP-92 NSCLC was determined as 2.15 µM; in the experiment with MCF7 breast it was 0.452 µM; in the experiment on T-47D breast, 15.3 µM; with M14 melanoma, 1.46 µM.
